Experimental data as given in patent publication US20250353873A1, “COMPOUNDS AND METHODS FOR MODULATING APOE EXPRESSION” (Ionis Pharmaceuticals, Inc., priority 2024, published 2025).
Strand notation (5' to 3'): a small letter for the sugar, then the base; units joined by * are phosphorothioate-linked, units joined directly phosphodiester-linked; [ ] holds rarer units or linkages, { } end groups; capitals alone tell only the bases. [ms] = mesyl phosphoramidate linkage; k = constrained ethyl (cEt); [5mC] = 5-methylcytosine; d = 2'-deoxy (DNA)

test system: human APOE RNA; test: Dose-dependent inhibition of human APOE RNA in HepG2 cells, electroporation, 50,000 cells per well, RT-PCR normalized to GAPDH (Example 4, Tables 8-10); assay type: cell-based; conditions: 5 nM; HepG2, electroporation, 24-hour treatment
Experimental: Modified oligonucleotides selected from the examples above were tested at various doses in HepG2 cells. The modified oligonucleotides were tested in a series of experiments that had the same culture conditions. Each experiment is identified in separate tables below.
HepG2 cells plated at a density of 50,000 cells per well were treated by electroporation with various concentrations of modified oligonucleotide as specified in the tables below. […] APOE RNA levels were measured using the human primer probe set RTS3073 (forward sequence […], designated herein as SEQ ID NO: 7; reverse sequence CCATCAGCGCCCTCAGTT, designated herein as SEQ ID NO: 8; probe sequence […], designated herein as SEQ ID NO:9). APOE RNA levels were normalized to human GAPDH. […] Results are presented as percent APOE RNA, relative to the amount of APOE RNA in untreated control cells (UTC).

Substance	APOE RNA (% UTC)
1746796 (k[5mC]*kT*dT[ms]dG[ms]kG*dT[ms]dG[ms]dA[ms]dA[ms]dT*d[5mC]*dT*dT*dT*dA[ms]dT*kT*dA[ms]kA*kA; antisense) [Compound 1746796]	110
1746797 (k[5mC]*kT*dT[ms]dG[ms]dG[ms]kT*dG[ms]dA[ms]dA[ms]dT*d[5mC]*dT*dT*dT*dA[ms]dT*kT*dA[ms]kA*kA; antisense) [Compound 1746797]	139

same assay, conditions: 13 nM; HepG2, electroporation, 24-hour treatment

Substance	APOE RNA (% UTC)
1746796 (k[5mC]*kT*dT[ms]dG[ms]kG*dT[ms]dG[ms]dA[ms]dA[ms]dT*d[5mC]*dT*dT*dT*dA[ms]dT*kT*dA[ms]kA*kA; antisense) [Compound 1746796]	126
1746797 (k[5mC]*kT*dT[ms]dG[ms]dG[ms]kT*dG[ms]dA[ms]dA[ms]dT*d[5mC]*dT*dT*dT*dA[ms]dT*kT*dA[ms]kA*kA; antisense) [Compound 1746797]	128

same assay, conditions: 33 nM; HepG2, electroporation, 24-hour treatment

Substance	APOE RNA (% UTC)
1746796 (k[5mC]*kT*dT[ms]dG[ms]kG*dT[ms]dG[ms]dA[ms]dA[ms]dT*d[5mC]*dT*dT*dT*dA[ms]dT*kT*dA[ms]kA*kA; antisense) [Compound 1746796]	128
1746797 (k[5mC]*kT*dT[ms]dG[ms]dG[ms]kT*dG[ms]dA[ms]dA[ms]dT*d[5mC]*dT*dT*dT*dA[ms]dT*kT*dA[ms]kA*kA; antisense) [Compound 1746797]	150

same assay, conditions: 82 nM; HepG2, electroporation, 24-hour treatment

Substance	APOE RNA (% UTC)
1746796 (k[5mC]*kT*dT[ms]dG[ms]kG*dT[ms]dG[ms]dA[ms]dA[ms]dT*d[5mC]*dT*dT*dT*dA[ms]dT*kT*dA[ms]kA*kA; antisense) [Compound 1746796]	137
1746797 (k[5mC]*kT*dT[ms]dG[ms]dG[ms]kT*dG[ms]dA[ms]dA[ms]dT*d[5mC]*dT*dT*dT*dA[ms]dT*kT*dA[ms]kA*kA; antisense) [Compound 1746797]	143

same assay, conditions: 205 nM; HepG2, electroporation, 24-hour treatment

Substance	APOE RNA (% UTC)
1746796 (k[5mC]*kT*dT[ms]dG[ms]kG*dT[ms]dG[ms]dA[ms]dA[ms]dT*d[5mC]*dT*dT*dT*dA[ms]dT*kT*dA[ms]kA*kA; antisense) [Compound 1746796]	119
1746797 (k[5mC]*kT*dT[ms]dG[ms]dG[ms]kT*dG[ms]dA[ms]dA[ms]dT*d[5mC]*dT*dT*dT*dA[ms]dT*kT*dA[ms]kA*kA; antisense) [Compound 1746797]	129

same assay, conditions: 512 nM; HepG2, electroporation, 24-hour treatment

Substance	APOE RNA (% UTC)
1746796 (k[5mC]*kT*dT[ms]dG[ms]kG*dT[ms]dG[ms]dA[ms]dA[ms]dT*d[5mC]*dT*dT*dT*dA[ms]dT*kT*dA[ms]kA*kA; antisense) [Compound 1746796]	89
1746797 (k[5mC]*kT*dT[ms]dG[ms]dG[ms]kT*dG[ms]dA[ms]dA[ms]dT*d[5mC]*dT*dT*dT*dA[ms]dT*kT*dA[ms]kA*kA; antisense) [Compound 1746797]	113

same assay, conditions: 1,280 nM; HepG2, electroporation, 24-hour treatment

Substance	APOE RNA (% UTC)
1746796 (k[5mC]*kT*dT[ms]dG[ms]kG*dT[ms]dG[ms]dA[ms]dA[ms]dT*d[5mC]*dT*dT*dT*dA[ms]dT*kT*dA[ms]kA*kA; antisense) [Compound 1746796]	71
1746797 (k[5mC]*kT*dT[ms]dG[ms]dG[ms]kT*dG[ms]dA[ms]dA[ms]dT*d[5mC]*dT*dT*dT*dA[ms]dT*kT*dA[ms]kA*kA; antisense) [Compound 1746797]	71

same assay, conditions: 3,200 nM; HepG2, electroporation, 24-hour treatment

Substance	APOE RNA (% UTC)
1746796 (k[5mC]*kT*dT[ms]dG[ms]kG*dT[ms]dG[ms]dA[ms]dA[ms]dT*d[5mC]*dT*dT*dT*dA[ms]dT*kT*dA[ms]kA*kA; antisense) [Compound 1746796]	40
1746797 (k[5mC]*kT*dT[ms]dG[ms]dG[ms]kT*dG[ms]dA[ms]dA[ms]dT*d[5mC]*dT*dT*dT*dA[ms]dT*kT*dA[ms]kA*kA; antisense) [Compound 1746797]	37

same assay, conditions: 8,000 nM; HepG2, electroporation, 24-hour treatment

Substance	APOE RNA (% UTC)
1746796 (k[5mC]*kT*dT[ms]dG[ms]kG*dT[ms]dG[ms]dA[ms]dA[ms]dT*d[5mC]*dT*dT*dT*dA[ms]dT*kT*dA[ms]kA*kA; antisense) [Compound 1746796]	28
1746797 (k[5mC]*kT*dT[ms]dG[ms]dG[ms]kT*dG[ms]dA[ms]dA[ms]dT*d[5mC]*dT*dT*dT*dA[ms]dT*kT*dA[ms]kA*kA; antisense) [Compound 1746797]	42

same assay, conditions: 20,000 nM; HepG2, electroporation, 24-hour treatment

Substance	APOE RNA (% UTC)
1746796 (k[5mC]*kT*dT[ms]dG[ms]kG*dT[ms]dG[ms]dA[ms]dA[ms]dT*d[5mC]*dT*dT*dT*dA[ms]dT*kT*dA[ms]kA*kA; antisense) [Compound 1746796]	20
1746797 (k[5mC]*kT*dT[ms]dG[ms]dG[ms]kT*dG[ms]dA[ms]dA[ms]dT*d[5mC]*dT*dT*dT*dA[ms]dT*kT*dA[ms]kA*kA; antisense) [Compound 1746797]	18

same assay, conditions: HepG2, electroporation, 24-hour treatment

Substance	IC50 [µM]
1746796 (k[5mC]*kT*dT[ms]dG[ms]kG*dT[ms]dG[ms]dA[ms]dA[ms]dT*d[5mC]*dT*dT*dT*dA[ms]dT*kT*dA[ms]kA*kA; antisense) [Compound 1746796]	3.01
1746797 (k[5mC]*kT*dT[ms]dG[ms]dG[ms]kT*dG[ms]dA[ms]dA[ms]dT*d[5mC]*dT*dT*dT*dA[ms]dT*kT*dA[ms]kA*kA; antisense) [Compound 1746797]	3.77

test system: human APOE RNA; test: Activity in APOE C57BL/6NTac-Apoeem7250 knock-in mice, single ICV bolus, 4 weeks (Example 10); assay type: in vivo; conditions: cortex; single ICV bolus 300 μg; 4 weeks post treatment; normalized to mouse Ppia
Experimental: Modified oligonucleotides described above were tested in the APOE C57BL/6NTac-Apoeem7250 knock-in mouse model described above.
APOE C57BL/6NTac-Apoeem7250 knock-in mice were divided into groups of 2-4 mice each. Each mouse received a single ICV bolus of 300 μg of modified oligonucleotide. A group of 3-4 mice received a single ICV bolus with PBS as a negative control.
Four weeks post treatment, mice were sacrificed and RNA was extracted from cortical brain tissue and spinal cord for quantitative real-time RT-PCR analysis of RNA expression of APOE using human primer probe set RTS3073 (described herein above). APOE RNA levels were normalized to mouse Ppia. Mouse Ppia was amplified using primer probe set m_cyclo24 (described herein above). Results are presented as percent human APOE RNA relative to the amount of human APOE RNA in PBS treated animals, (% control). Each experiment is identified in separate tables below.

Substance	APOE RNA (% control) Cortex [% control]
1746796 (k[5mC]*kT*dT[ms]dG[ms]kG*dT[ms]dG[ms]dA[ms]dA[ms]dT*d[5mC]*dT*dT*dT*dA[ms]dT*kT*dA[ms]kA*kA; antisense) [Compound 1746796]	81
1746797 (k[5mC]*kT*dT[ms]dG[ms]dG[ms]kT*dG[ms]dA[ms]dA[ms]dT*d[5mC]*dT*dT*dT*dA[ms]dT*kT*dA[ms]kA*kA; antisense) [Compound 1746797]	72

same assay, conditions: spinal cord; single ICV bolus 300 μg; 4 weeks post treatment; normalized to mouse Ppia

Substance	APOE RNA (% control) Spinal Cord [% control]
1746796 (k[5mC]*kT*dT[ms]dG[ms]kG*dT[ms]dG[ms]dA[ms]dA[ms]dT*d[5mC]*dT*dT*dT*dA[ms]dT*kT*dA[ms]kA*kA; antisense) [Compound 1746796]	68
1746797 (k[5mC]*kT*dT[ms]dG[ms]dG[ms]kT*dG[ms]dA[ms]dA[ms]dT*d[5mC]*dT*dT*dT*dA[ms]dT*kT*dA[ms]kA*kA; antisense) [Compound 1746797]	68
